Experimental data from patent EP0427693A1, “Method for azide displacement of alpha-triflates of 1,5-lactones” (MONSANTO COMPANY, priority 1989, dated 1991).

Legend:
Type in all cases: biochemical
human α-mannosidases = test: Human liver glycosidase inhibition, α-mannosidases; conditions: human liver glycosidases
[1] = target: T1, human liver α-mannosidase (Lysosomal) (Homo sapiens, UniProt O00754); test: Human liver glycosidase inhibition, lysosomal α-mannosidase; conditions: 1 mM concentration of inhibitor; hydrolysis of 4-umbelliferyl pyrranosides; read-out: % Inhibition α-Mannosidases Lysosomal
T1 construct: from tissue; host or cells: human liver
T1 sequence (O00754 50-1011): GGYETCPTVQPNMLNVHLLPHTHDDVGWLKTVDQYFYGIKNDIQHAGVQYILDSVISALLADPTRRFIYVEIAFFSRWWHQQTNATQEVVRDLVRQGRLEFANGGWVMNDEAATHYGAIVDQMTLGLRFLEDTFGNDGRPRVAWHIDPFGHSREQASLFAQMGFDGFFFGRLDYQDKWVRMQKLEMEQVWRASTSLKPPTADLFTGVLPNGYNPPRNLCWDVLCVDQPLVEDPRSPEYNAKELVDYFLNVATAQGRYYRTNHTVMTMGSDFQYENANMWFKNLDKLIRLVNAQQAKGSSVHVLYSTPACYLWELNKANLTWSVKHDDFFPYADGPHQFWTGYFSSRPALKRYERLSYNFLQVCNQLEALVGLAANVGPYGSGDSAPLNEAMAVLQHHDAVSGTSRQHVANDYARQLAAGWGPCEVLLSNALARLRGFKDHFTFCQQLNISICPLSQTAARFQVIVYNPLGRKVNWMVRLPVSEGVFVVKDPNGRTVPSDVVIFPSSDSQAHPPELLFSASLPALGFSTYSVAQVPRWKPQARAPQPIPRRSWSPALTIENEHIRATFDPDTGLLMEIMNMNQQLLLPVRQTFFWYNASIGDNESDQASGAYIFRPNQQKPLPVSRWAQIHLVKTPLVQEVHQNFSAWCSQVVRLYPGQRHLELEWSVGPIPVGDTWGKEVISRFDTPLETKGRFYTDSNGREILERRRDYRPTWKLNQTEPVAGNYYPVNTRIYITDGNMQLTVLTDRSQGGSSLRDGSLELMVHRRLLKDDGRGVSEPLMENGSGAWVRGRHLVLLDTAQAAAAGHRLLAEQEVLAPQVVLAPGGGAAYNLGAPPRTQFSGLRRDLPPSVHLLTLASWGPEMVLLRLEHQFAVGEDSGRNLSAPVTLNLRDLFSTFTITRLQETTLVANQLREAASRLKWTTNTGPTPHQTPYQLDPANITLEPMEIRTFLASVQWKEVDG

[2] = target: T2, human liver α-mannosidase (Golgi II) (Homo sapiens, UniProt Q16706); test: Human liver glycosidase inhibition, Golgi II α-mannosidase; conditions: 1 mM concentration of inhibitor; hydrolysis of 4-umbelliferyl pyrranosides; read-out: % Inhibition α-Mannosidases Golgi II
T2 construct: from tissue; host or cells: human liver
T2 sequence (Q16706 1-1144): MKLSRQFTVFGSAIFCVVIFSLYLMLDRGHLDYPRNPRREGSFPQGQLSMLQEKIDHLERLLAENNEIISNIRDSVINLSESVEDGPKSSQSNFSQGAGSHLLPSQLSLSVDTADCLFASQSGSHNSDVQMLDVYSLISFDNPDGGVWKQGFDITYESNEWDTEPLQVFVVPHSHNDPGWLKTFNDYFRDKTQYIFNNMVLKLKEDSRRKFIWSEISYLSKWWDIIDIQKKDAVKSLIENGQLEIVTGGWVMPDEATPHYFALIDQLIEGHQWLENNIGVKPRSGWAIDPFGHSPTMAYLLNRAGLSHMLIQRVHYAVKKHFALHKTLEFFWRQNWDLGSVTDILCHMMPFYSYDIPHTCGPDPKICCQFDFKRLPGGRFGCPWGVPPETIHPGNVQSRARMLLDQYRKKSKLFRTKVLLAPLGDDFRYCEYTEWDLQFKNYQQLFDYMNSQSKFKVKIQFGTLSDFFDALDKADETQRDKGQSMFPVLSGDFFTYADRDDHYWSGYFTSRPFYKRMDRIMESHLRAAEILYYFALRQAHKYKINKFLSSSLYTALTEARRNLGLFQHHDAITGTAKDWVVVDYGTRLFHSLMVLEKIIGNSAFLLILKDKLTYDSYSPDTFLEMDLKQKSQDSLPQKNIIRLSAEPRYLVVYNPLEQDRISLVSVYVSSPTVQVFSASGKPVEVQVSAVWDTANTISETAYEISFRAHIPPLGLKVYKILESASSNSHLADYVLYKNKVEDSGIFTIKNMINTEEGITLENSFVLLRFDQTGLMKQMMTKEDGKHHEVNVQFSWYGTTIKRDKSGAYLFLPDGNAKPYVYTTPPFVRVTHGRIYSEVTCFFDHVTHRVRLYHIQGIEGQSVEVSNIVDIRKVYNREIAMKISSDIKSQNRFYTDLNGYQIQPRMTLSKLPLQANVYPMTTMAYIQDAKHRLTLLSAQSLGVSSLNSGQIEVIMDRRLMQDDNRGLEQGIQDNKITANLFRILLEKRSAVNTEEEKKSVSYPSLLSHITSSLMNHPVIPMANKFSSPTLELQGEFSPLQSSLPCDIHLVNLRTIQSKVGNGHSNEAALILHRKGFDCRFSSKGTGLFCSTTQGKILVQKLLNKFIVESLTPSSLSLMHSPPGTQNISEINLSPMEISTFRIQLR

human liver α-fucosidase = target: T3, human liver α-fucosidase (Homo sapiens, UniProt P04066); test: Human liver glycosidase inhibition, α-fucosidase; conditions: for inhibition at 1000 µM: 1 mM concentration of inhibitor, hydrolysis of 4-umbelliferyl pyrranosides; for inhibition of α-fucosidase (in words): human liver glycosidases
T3 construct: from tissue; host or cells: human liver
T3 sequence (P04066 32-466): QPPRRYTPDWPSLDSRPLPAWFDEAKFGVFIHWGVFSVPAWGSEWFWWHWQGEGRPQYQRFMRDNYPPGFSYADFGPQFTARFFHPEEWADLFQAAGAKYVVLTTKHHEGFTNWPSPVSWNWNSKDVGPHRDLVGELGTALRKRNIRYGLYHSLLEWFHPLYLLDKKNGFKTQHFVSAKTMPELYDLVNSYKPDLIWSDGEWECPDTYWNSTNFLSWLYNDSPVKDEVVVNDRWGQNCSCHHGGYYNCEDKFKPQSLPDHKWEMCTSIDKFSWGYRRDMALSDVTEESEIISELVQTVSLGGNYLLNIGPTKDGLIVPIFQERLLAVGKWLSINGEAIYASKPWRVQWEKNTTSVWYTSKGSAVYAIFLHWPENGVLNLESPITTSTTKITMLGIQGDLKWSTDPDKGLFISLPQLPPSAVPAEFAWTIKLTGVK

[3] = target: T4, human liver α-mannosidase (Neutral) (Homo sapiens, UniProt Q9NTJ4); test: Human liver glycosidase inhibition, neutral α-mannosidase; conditions: 1 mM concentration of inhibitor; hydrolysis of 4-umbelliferyl pyrranosides; read-out: % Inhibition α-Mannosidases Neutral
T4 construct: from tissue; host or cells: human liver
T4 sequence (Q9NTJ4 1-1040): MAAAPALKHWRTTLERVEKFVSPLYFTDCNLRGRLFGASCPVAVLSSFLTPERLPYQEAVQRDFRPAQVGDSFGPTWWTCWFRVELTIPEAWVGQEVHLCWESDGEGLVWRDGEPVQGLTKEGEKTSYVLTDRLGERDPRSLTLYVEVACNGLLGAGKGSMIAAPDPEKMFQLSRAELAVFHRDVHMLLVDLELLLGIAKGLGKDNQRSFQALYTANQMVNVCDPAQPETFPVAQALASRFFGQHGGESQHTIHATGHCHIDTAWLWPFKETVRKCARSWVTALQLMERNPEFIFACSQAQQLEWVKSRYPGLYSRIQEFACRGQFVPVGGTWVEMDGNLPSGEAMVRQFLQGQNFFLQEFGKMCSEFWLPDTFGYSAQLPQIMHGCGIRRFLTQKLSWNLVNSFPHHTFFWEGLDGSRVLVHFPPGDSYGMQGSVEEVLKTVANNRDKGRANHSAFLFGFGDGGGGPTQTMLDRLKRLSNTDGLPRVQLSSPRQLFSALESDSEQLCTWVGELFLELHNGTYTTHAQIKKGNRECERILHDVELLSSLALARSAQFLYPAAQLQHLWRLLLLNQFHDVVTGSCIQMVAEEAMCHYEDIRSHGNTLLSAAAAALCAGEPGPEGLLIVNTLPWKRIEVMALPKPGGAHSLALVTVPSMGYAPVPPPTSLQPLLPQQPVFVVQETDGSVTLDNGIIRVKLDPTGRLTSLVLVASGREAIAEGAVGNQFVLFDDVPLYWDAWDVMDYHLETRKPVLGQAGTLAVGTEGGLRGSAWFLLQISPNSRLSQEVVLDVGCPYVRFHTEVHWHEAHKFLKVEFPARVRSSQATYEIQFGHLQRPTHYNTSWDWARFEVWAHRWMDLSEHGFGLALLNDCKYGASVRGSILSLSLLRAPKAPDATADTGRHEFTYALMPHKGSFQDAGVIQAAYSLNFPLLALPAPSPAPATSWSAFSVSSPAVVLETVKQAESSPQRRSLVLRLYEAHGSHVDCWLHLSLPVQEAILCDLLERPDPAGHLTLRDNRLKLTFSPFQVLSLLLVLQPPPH

Row | SMILES | inhibition of α-mannosidases (in words) (human α-mannosidases) | inhibition at 1000 µM [1] | inhibition at 1000 µM [2] | inhibition at 1000 µM (human liver α-fucosidase) | inhibition of α-fucosidase (in words) (human liver α-fucosidase) | inhibition at 1000 µM [3]
1 | OC[C@@H]1N[C@H](CO)[C@@H](O)[C@@H](O)[C@@H]1O [6-Epi-homomannojirimycin, 2,6-dideoxy-2,6-imino-L-glycero-D-talo-heptitol] | did not inhibit any α-mannosidase | 0% | 0% | 96% | powerful inhibitors | 0%
2 | OC[C@H]1NC[C@@H](O)[C@@H](O)[C@@H]1O [Deoxymannojirimycin, reference compound] |  | 58% | 45% | 91% | powerful inhibitors | 21%
3 | OC[C@H]1N[C@H](CO)[C@@H](O)C(O)[C@@H]1O (stereo partly drawn) [Homomannojirimycin, 2,6-dideoxy-2,6-imino-D-glycero-D-talo-heptitol] |  | 49% | 56% | 29% | only a weak inhibitor | 30%
